Source: ChEMBL document CHEMBL1129064, “Design and synthesis of 2',3'-dideoxy-2',3'-didehydro-beta-L-cytidine (beta-L-d4C) and 2',3'-dideoxy 2',3'-didehydro-beta-L-5-fluorocytidine (beta-L-Fd4C), two exceptionally potent inhibitors of human hepatitis B virus (HBV) and potent inhibitors of human immunodeficiency virus (HIV) in vitro” (1996)

Experiments:
Type in all cases: functional
Conditions in all cases: Homo sapiens, read-out: ED50 (the source's name)
CCRF-CEM [1] = test: In vitro concentration required to decrease 50% of mitochondrial DNA content in CEM cells
HepG2 [2] = test: Concentration required to inhibit 50% of extracellular circular replication of HBV DNA using 2215 cell line
MT2 = test: Concentration required to inhibit 50% of HIV activity in MT-2 cells
CCRF-CEM [3] = test: In vitro concentration required to inhibit 50% of CEM cell growth
HepG2 [4] = test: Concentration required to inhibit 50% of intracellular circular replication of HBV DNA using 2215 cell line

Compound	EC50 (CCRF-CEM [1])	EC50 (HepG2 [2])	EC50 (MT2)	EC50 (CCRF-CEM [3])	EC50 (HepG2 [4])
Nc1ccn([C@@H]2C=C[C@H](CO)O2)c(=O)n1	2 µM	3 µM	0.7 µM	22 µM	
Nc1ccn([C@@H]2CC[C@H](CO)O2)c(=O)n1	0.022 µM	5.2 µM	1.5 µM	10 µM	6.2 µM
Nc1nc(=O)n([C@@H]2CS[C@H](CO)O2)cc1F [EMTRICITABINE]	> 50 µM	0.017 µM	2 µM	50 µM	0.03 µM
Nc1nc(=O)n([C@@H]2C=C[C@H](CO)O2)cc1F [ELVUCITABINE]	> 100 µM	0.002 µM	0.09 µM	7 µM	0.002 µM
Nc1nc(=O)n([C@@H]2CC[C@H](CO)O2)cc1F	> 100 µM	0.055 µM	0.5 µM	67 µM	0.036 µM
Nc1ccn([C@H]2C=C[C@@H](CO)O2)c(=O)n1	> 20 µM	0.01 µM	1 µM	20 µM	0.008 µM
